2 compounds from ChEMBL document CHEMBL1155620, “Two new biologically active triterpene saponins from Acanthophyllum squarrosum” (J Nat Prod, 2000) can be followed below.

The structures appear in SMILES notation. The source made the active and inactive calls. The calls are words filed in the database; no cut-off is given here.

Data set [1] is filed under the species Mus musculus. As to the kind of experiment: Increase in LPS-induced proliferation in mouse B-lymphocytes at 1 ug/mL by MTS assay. It is filed as functional, cell-based. (Formazan colour is commonly taken as a measure of viable cells.)
Data set [2] can be described thus: Cytotoxicity against mouse lymphocytes at 100 ug/mL by MTS assay.
For data set [3], the species on record is Mus musculus. As to the kind of experiment: Immunostimulant activity in mouse lymphocytes at 100 pg/ml to 1 ug/mL by MTS assay. It is filed as functional, cell-based.
Data set [4] in a line: Suppression of concanavalin A-induced proliferation in mouse T-lymphocytes at 1 ug/mL by MTS assay. The format is functional.
Data set [5] can be described thus: Cytotoxicity against mouse lymphocytes at 10 ug/mL by MTS assay.
Data set [6] is filed under the species Mus musculus. As to the kind of experiment: Increase in concanavalin A-induced proliferation in mouse T-lymphocytes at 1 ug/mL by MTS assay. It is filed as functional, cell-based.

Regarding `C[C@@H]1O[C@@H](O[C@@H]2[C@@H](O)[C@H](OC(=O)[C@]34CCC(C)(C)C[C@H]3C3=CC[C@@H]5[C@@]6(C)CC[C@H](O[C@@H]7O[C@H](C(=O)O)[C@@H](O)[C@H](O[C@@H]8OC[C@@H](O)[C@H](O)[C@H]8O)[C@H]7O[C@@H]7O[C@H](CO)[C@H](O)[C@H](O)[C@H]7O)[C@@](C)(C=O)[C@@H]6CC[C@@]5(C)[C@]3(C)CC4)O[C@H](C)[C@@H]2O[C@@H]2O[C@@H](C)[C@H](O[C@@H]3OC[C@@H](O)[C@H](O[C@@H]4OC[C@@H](O)[C@H](O)[C@H]4O)[C@H]3O)[C@@H](O)[C@H]2O)[C@H](O)[C@H](O)[C@H]1O`, the result in data set [1] and in data set [3] was Active. Also, the Activity is listed as 58% in data set [2], 40% in data set [4] and “Non-toxic” in data set [5].

With `C[C@@H]1O[C@@H](O[C@H]2[C@H](O[C@H]3[C@H](OC(=O)[C@]45CCC(C)(C)C[C@H]4C4=CC[C@@H]6[C@@]7(C)CC[C@H](O[C@@H]8O[C@H](CO)[C@@H](O)[C@H](O)[C@H]8O)[C@@](C)(C=O)[C@@H]7CC[C@@]6(C)[C@]4(C)CC5)O[C@H](CO[C@@H]4O[C@H](CO)[C@@H](O)[C@H](O)[C@H]4O)[C@@H](O)[C@@H]3O)OC[C@H](O)[C@@H]2O)[C@H](O)[C@H](O)[C@H]1O`, the outcome in data set [1] and in data set [6] was Active. For the same compound, the Activity entry in data set [2] is given as “Non-toxic”.
